Converted amounts (≈) assume the structure as drawn.
Experiments:
HT-1080 = assay: Antiproliferative activity against human HT1080 cells after 4 days by MTT assay; format: functional; conditions: HT-1080, 96 h, read-out: ED50 (the source's name)
[1] = Antiproliferative activity against mouse Colon 26-L5 cells after 4 days by MTT assay; format: functional; conditions: 96 h, read-out: ED50 (the source's name)

SMILES	EC50 (HT-1080) [mg/L]	EC50 [1] [mg/L]
C=C/C(=C\[C@H]1C(=O)[C@H](OC(C)=O)C[C@H]2C(C)(C)[C@H](O)[C@H](OC(C)=O)[C@H](OC(=O)c3ccccc3)[C@]12C)C(C)=O [NORSTAMINONE A]	23.2 (≈ 42.9 µM)	12.8 (≈ 23.7 µM)
COc1ccc(-c2cc(=O)c3c(O)c(O)c(OC)cc3o2)cc1 [LADANEIN]	3 (≈ 9.55 µM)	2.3 (≈ 7.32 µM)
COc1ccc(-c2cc(=O)c3cc(OC)c(OC)c(OC)c3o2)cc1OC	74.8 (≈ 201 µM)	31.4 (≈ 84.3 µM)
C=C[C@@]1(C)C[C@@H](OC(=O)c2ccccc2)[C@H]2[C@](O)(C1=O)[C@H](OC(C)=O)C[C@H]1C(C)(C)[C@H](O)[C@H](OC(C)=O)[C@H](OC(=O)c3ccccc3)[C@@]12C [ORTHOSIPHOL A]	> 100	63.1 (≈ 93.2 µM)
COc1cc(/C=C/C(=O)OCCc2ccc(O)cc2)ccc1O	47.1 (≈ 150 µM)	33.7 (≈ 107 µM)
C=C[C@@]1(C)C[C@@H](OC(=O)c2ccccc2)[C@H]2[C@](O)(C1=O)[C@H](OC(C)=O)C[C@H]1C(C)(C)[C@H](OC(C)=O)[C@H](O)[C@H](OC(=O)c3ccccc3)[C@@]12C [ORTHOSIPHOL B]	57.9 (≈ 85.6 µM)	28.1 (≈ 41.5 µM)
C=C[C@@]1(C)CC(=O)[C@H]2[C@](O)(C1=O)[C@H](O)C[C@H]1C(C)(C)[C@H](OC(=O)c3ccccc3)[C@H](OC(C)=O)[C@H](OC(=O)c3ccccc3)[C@@]12C [ORTHOSIPHOL N]	18.6 (≈ 29.4 µM)	35.1 (≈ 55.5 µM)
C=C[C@@]1(C)C[C@@H](OC(=O)c2ccccc2)[C@H]2[C@](O)(C1=O)[C@H](OC(C)=O)C[C@H]1C(C)(C)[C@H](O)[C@H](O)[C@H](OC(=O)c3ccccc3)[C@@]12C [ORTHOSIPHOL K]	21.8 (≈ 34.3 µM)	13.8 (≈ 21.7 µM)
O=c1[nH]cc(F)c(=O)[nH]1 [FLUOROURACIL]	0.48 (≈ 3.69 µM)	0.015 (≈ 0.115 µM)
C=C[C@]1(C)C(=O)[C@]2(O)[C@H](OC(C)=O)C[C@H]3C(C)(C)[C@H](O)[C@H](OC(C)=O)[C@H](OC(=O)c4ccccc4)[C@]3(C)[C@H]2[C@H](OC(=O)c2ccccc2)[C@@H]1O [ORTHOSIPHOL L]	20.6 (≈ 29.7 µM)	24.7 (≈ 35.7 µM)
COc1ccc(-c2cc(=O)c3c(O)c(OC)c(OC)cc3o2)cc1O [EUPATORIN]	8.8 (≈ 25.6 µM)	3.7 (≈ 10.7 µM)
C=C[C@H]1[C@@H](OC(=O)c2ccccc2)[C@H]2[C@](O)(C(=O)[C@@]1(C)O)[C@H](OC(C)=O)C[C@H]1C(C)(C)[C@H](O)[C@H](OC(C)=O)[C@H](OC(=O)c3ccccc3)[C@@]12C [NEOORTHOSIPHOL A]	96.3 (≈ 139 µM)	38.8 (≈ 56 µM)
COc1ccc(-c2cc(=O)c3c(OC)c(OC)c(OC)cc3o2)cc1	4.5 (≈ 13.1 µM)	8.1 (≈ 23.7 µM)
C=C[C@@]1(C)CC(=O)[C@H]2[C@](O)(C1=O)[C@H](OC(C)=O)C[C@H]1C(C)(C)[C@H](O)[C@H](OC(C)=O)[C@H](OC(=O)c3ccccc3)[C@@]12C [ORTHOSIPHOL M]	81.7 (≈ 143 µM)	31.3 (≈ 54.9 µM)
